Experimental data published in ChEMBL document CHEMBL1125524, “Adenosine A1 antagonists. 2. Structure-activity relationships on diuretic activities and protective effects against acute renal failure” (J Med Chem, 1992).

Assays:
[1] = test system: Rattus norvegicus; test: Serum creatinine concentration measured after intraperitoneal administration of 1 mg/kg of compound to rats(vehicle 5.07+/-0.33); type: functional
[2] = test system: Rattus norvegicus; test: Serum creatinine concentration measured after intraperitoneal administration of 10 mg/kg of compound to rats(vehicle 5.53+/-0.34); type: functional
[3] = test system: Rattus norvegicus; test: Urea nitrogen concentration measured after intraperitoneal administration of 1 mg/kg of compound to rats(vehicle 195.8+/-14.4); type: functional
[4] = test system: Rattus norvegicus; test: Percent inhibition of serum creatinine by the compound given as ratio of Cr value in treated to vehicle treated ones after intraperitoneal administration of 10 mg/kg of compound to rats(vehicle 5.53+/-0.34); type: functional; conditions: ip
[5] = test system: Rattus norvegicus; test: Effect on urinary excretion potassium and sodium after oral administration of 25 mg/kg to rats(potassium and sodium excretion in control rat is 0.265+/-0.099); type: functional, Urine
[6] = test system: Rattus norvegicus; test: Ratio of urinary excretion value (urinary volume) in treated rats to that in control rats, at a peroral dose of 25 mg/Kg; type: functional, Urine
[7] = test system: Rattus norvegicus; test: Ratio of sodium ion/potassium ion concentration in treated rats to that in control rats, at a peroral dose of 25 mg/Kg; type: functional
[8] = test system: Rattus norvegicus; test: Ratio of urinary excretion value (Na+ concentration) in treated rats to that in control rats, at a peroral dose of 25 mg/Kg; type: functional, Urine
[9] = test system: Rattus norvegicus; test: Ratio of urinary excretion value (Na+ concentration) in treated rats to that in control rats, at a peroral dose of 6.25 mg/Kg; type: functional, Urine
[10] = test system: Rattus norvegicus; test: Oral diuretic activity was measured after oral administration of 25 mg/kg to rats(control volume is 1.64+/-0.7); type: functional, Urine
[11] = test system: Rattus norvegicus; test: Urea nitrogen concentration measured after intraperitoneal administration of 10 mg/kg of compound to rats(vehicle 177.4+/-5.3); type: functional
[12] = test system: Rattus norvegicus; test: Percent inhibition of Urea nitrogen by the compound given as ratio of UN value in treated to vehicle treated ones after intraperitoneal administration of 10 mg/kg of compound to rats(vehicle 177.4+/-5.3); type: functional; conditions: ip
[13] = test system: Rattus norvegicus; test: Percent inhibition of Urea nitrogen by the compound given as ratio of UN value in treated to vehicle treated ones after intraperitoneal administration of 1 mg/kg of compound to rats(vehicle 195.8+/-14.4); type: functional; conditions: Rattus norvegicus, ip
[14] = test system: Rattus norvegicus; test: Ratio of urinary excretion value (urinary volume) in treated rats to that in control rats, at a peroral dose of 6.25 mg/Kg; type: functional, Urine
[15] = target: Adenosine A2 receptor (Rattus norvegicus, UniProt P29276+P30543)
[16] = organism: Rattus norvegicus; test: animal or person; conditions: ip, read-out: Inhibition, dose 1 mg/kg, route intraperitoneal
[17] = test system: Rattus norvegicus; test: Serum creatinine concentration measured after intraperitoneal administration of 10 mg/kg of compound to rats(vehicle 3.22+/-0.35); type: functional
[18] = test system: Rattus norvegicus; test: Ratio of urinary excretion value (urinary volume) in treated rats to that in control rats, at a peroral dose of 1.6 mg/Kg; type: functional, Urine
[19] = test system: Rattus norvegicus; test: Ratio of sodium ion/potassium ion concentration in treated rats to that in control rats, at a peroral dose of 1.6 mg/Kg; type: functional
[20] = test system: Rattus norvegicus; test: Ratio of urinary excretion value (Na+ concentration) in treated rats to that in control rats, at a peroral dose of 1.6 mg/Kg; type: functional, Urine
[21] = test system: Rattus norvegicus; test: Percent inhibition of serum creatinine by the compound given as ratio of Cr value in treated to vehicle treated ones after intraperitoneal administration of 10 mg/kg of compound to rats(vehicle 3.22+/-0.35); type: functional; conditions: ip
[22] = test system: Rattus norvegicus; test: Oral diuretic activity was measured after oral administration of 25 mg/kg to rats(control volume is 1.21+/-0.08); type: functional, Urine
[23] = test system: Rattus norvegicus; test: Percent inhibition of Urea nitrogen by the compound given as ratio of UN value in treated to vehicle treated ones after intraperitoneal administration of 10 mg/kg of compound to rats(vehicle 110.7+/-9.4); type: functional; conditions: ip

**Q.** Which Cr [1] does the source give for `CCCn1c(=O)[nH]c(=O)c2[nH]c(C34CC5CC(CC3C5)C4)nc21` here?
**A.** 4.33 mg/dL

**Q.** What about the Cr [2] of the same molecule?
**A.** 2.83 mg/dL

**Q.** What about the UN [3] of the same molecule?
**A.** 164.9 mg/dL

**Q.** And the inhibition in vivo at 10 mg/kg [4]?
**A.** 49%

**Q.** What about the Na [5] of the same molecule?
**A.** 0.4 m equiv 6hr-1 100g-1

**Q.** What about the T/C [6] of the same molecule?
**A.** 1.43

**Q.** And the “Na+/K+” value [7]?
**A.** 1.29

**Q.** What about the T/C [8] of the same molecule?
**A.** 1.51

**Q.** What about the T/C [9] of the same molecule?
**A.** 1.49

**Q.** And the Urine volume [10]?
**A.** 2.34 ml 6hr-1 100g-1

**Q.** What about the UN [11] of the same molecule?
**A.** 107.4 mg/dL

**Q.** And the inhibition in vivo at 10 mg/kg [12]?
**A.** 39%

**Q.** What about the inhibition in vivo at 1 mg/kg [13] of the same molecule?
**A.** 16%

**Q.** What about the T/C [14] of the same molecule?
**A.** 1.26

**Q.** And the Ki [15]?
**A.** > 100 µM

**Q.** What about the inhibition in vivo at 1 mg/kg [16] of the same molecule?
**A.** 15%

**Q.** Which results are given for `NS(=O)(=O)c1cc(C(=O)O)c(NCc2ccco2)cc1Cl` [FUROSEMIDE]?
**A.** Cr [17]: 4.17 mg/dL; T/C [18]: 1; T/C [6]: 1.75; Na+/K+ [19]: 0.87; Na+/K+ [7]: 1.05; T/C [20]: 0.94; T/C [8]: 1.64; T/C [9]: 1.62; inhibition in vivo at 10 mg/kg [21]: -30%; Urine volume [22]: 2.12 ml 6hr-1 100g-1; inhibition in vivo at 10 mg/kg [23]: -36%; T/C [14]: 1.59
